Data taken from the NIST ThermoML archive (doi:10.1016/j.fluid.2005.05.023).

Conditions: Liquid, Vibrating tube method

CCO [ethanol]
mass density [kg/m3]
Conditions	100 kPa	5000 kPa	10000 kPa	15000 kPa	20000 kPa	25000 kPa	30000 kPa	35000 kPa	40000 kPa	45000 kPa
283.15 K	798	802	805.9	809.5	813	816.4	819.7	822.8	825.9	828.8
293.15 K	789.5	793.7	797.8	801.6	805.3	808.9	812.3	815.6	818.7	821.8
303.15 K	780.9	785.3	789.6	793.7	797.5	801.3	804.8	808.2	811.5	814.7
313.15 K	772.1	776.8	781.3	785.6	789.6	793.5	797.2	800.8	804.2	807.6
323.15 K	763.3	768.3	773	777.6	781.8	785.9	789.7	793.5	797.1	800.5
333.15 K	754	759.3	764.3	769.1	773.6	777.8	781.9	785.8	789.5	793.1
343.15 K	744.5	750.1	755.5	760.5	765.3	769.8	774	778.1	782	785.7
353.15 K	–	740.6	746.4	751.7	756.7	761.5	766	770.2	774.3	778.2

Cc1ccccc1 [toluene]
mass density [kg/m3]
Conditions	100 kPa	5000 kPa	10000 kPa	15000 kPa	20000 kPa	25000 kPa	30000 kPa	35000 kPa	40000 kPa	45000 kPa
283.15 K	876.1	879.5	882.9	886.1	889.3	892.4	895.3	898.2	901	903.7
293.15 K	866.8	870.5	874.1	877.5	880.8	884	887.1	890.1	893	895.9
303.15 K	857.5	861.4	865.2	868.8	872.3	875.7	879	882.1	885.2	888.1
313.15 K	848.1	852.2	856.2	860	863.7	867.3	870.7	874	877.2	880.3
323.15 K	838.6	843	847.2	851.3	855.2	858.9	862.5	866	869.4	872.6
333.15 K	828.8	833.5	838	842.3	846.4	850.4	854.2	857.9	861.4	864.8
343.15 K	819.2	824.1	829	833.5	837.9	842.1	846	849.9	853.5	857
353.15 K	809.4	814.7	819.9	824.7	829.3	833.7	837.9	841.9	845.7	849.4
